According to article PMC10746212 (mBio, 2023):

Biological target: T1, MdrA (rMdrA) (Brucella abortus, UniProt Q2YN99)
T1 construct: gene BAB1_0783
Settings: 192 bp btaE promoter fragment, rMucR present, pH 7.4, room temperature; inhibitor of MdrA displacement activity; no direct binding measured

T1 sequence (Q2YN99 1-199 limits assumed): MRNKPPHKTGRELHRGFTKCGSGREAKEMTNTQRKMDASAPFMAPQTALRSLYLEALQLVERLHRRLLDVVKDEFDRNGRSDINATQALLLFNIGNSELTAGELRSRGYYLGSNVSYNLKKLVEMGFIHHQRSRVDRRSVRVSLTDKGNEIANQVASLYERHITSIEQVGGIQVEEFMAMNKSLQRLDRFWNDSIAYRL

C[C@H](CCC(=O)O)[C@H]1CC[C@H]2[C@@H]3CC[C@@H]4C[C@H](O)CC[C@]4(C)[C@H]3C[C@H](O)[C@]12C [deoxycholate]
EMSA, displacement of MucR from 32P-labelled btaE promoter DNA by rMdrA: MdrA can no longer displace MucR from the btaE promoter when deoxycholate
